ChEMBL document CHEMBL1759873, “Novel thiolactone-isatin hybrids as potential antimalarial and antitubercular agents” (Bioorg Med Chem Lett, 2011)
Values after ≈ are worked out from the molar mass of the structure shown.

Tests used:
Plasmodium falciparum = experiment: Antiplasmodial activity against Plasmodium falciparum W2; format: functional, organism-based
[1] = Inhibition of Plasmodium falciparum W2 recombinant falcipain-2
[2] = tested on: Mycobacterium tuberculosis; experiment: Antitubercular activity against Mycobacterium tuberculosis H37Rv at 1 ug/ml by BACTEC radiometric susceptibility assay; format: functional
[3] = tested on: Mycobacterium tuberculosis; experiment: Antitubercular activity against Mycobacterium tuberculosis H37Rv at 10 ug/ml by BACTEC radiometric susceptibility assay; format: functional
[4] = tested on: Mycobacterium tuberculosis; experiment: Antitubercular activity against Mycobacterium tuberculosis H37Rv by microplate alamar blue assay; format: functional
[5] = tested on: Mycobacterium tuberculosis; experiment: Antitubercular activity against Mycobacterium tuberculosis H37Rv by LORA assay; format: functional

| SMILES | IC50 (Plasmodium falciparum) [µM] | IC50 [1] [µM] | inhibition at 1 µg/mL [2] [%] | inhibition at 10 µg/mL [3] [%] | MIC [4] [µM] | MIC [5] [µM] |
| --- | --- | --- | --- | --- | --- | --- |
| CC1=C2OCCCCCCN3C(=O)C(O)(c4cc(Br)ccc43)C2(C)SC1=O (stereo not given) | 6.93 | 83.4 | 8.1 | -0.5 | > 128 |  |
| CN[C@@H]1[C@H](O[C@H]2[C@H](O[C@H]3[C@H](O)[C@@H](O)[C@H](N=C(N)N)[C@@H](O)[C@@H]3N=C(N)N)O[C@@H](C)[C@]2(O)C=O)O[C@@H](CO)[C@H](O)[C@H]1O [STREPTOMYCIN] |  |  |  |  | 0.43 (≈ 0.25 µg/mL) |  |
| O=C1C(=O)N(CCCCCCBr)c2ccccc21 | > 20 | > 100 |  |  | 97.6 (≈ 30.3 µg/mL) | 108 (≈ 33.5 µg/mL) |
| COc1c(N2C[C@@H]3CCCN[C@@H]3C2)c(F)cc2c(=O)c(C(=O)O)cn(C3CC3)c12 [MOXIFLOXACIN] |  |  |  |  | 0.29 (≈ 0.116 µg/mL) | 31.1 (≈ 12.5 µg/mL) |
| CC1=C(OCCN2C(=O)C(=O)c3ccccc32)C(C)SC1=O (stereo not given) | > 20 | 40.2 | 31.7 | 34.7 | > 128 |  |
| CC1=C2OCCCCN3C(=O)C(O)(c4cc([N+](=O)[O-])ccc43)C2(C)SC1=O (stereo not given) | > 20 | 44.5 | -3 | -5.1 | > 128 |  |
| CC1=C(OCCN2C(=O)C(=O)c3cc(I)ccc32)C(C)SC1=O (stereo not given) | > 20 | 17.8 | -3.2 | 42 | > 128 |  |
| CC1=C(OCCN2C(=O)C(=O)c3cc(F)ccc32)C(C)SC1=O (stereo not given) | > 20 | 89.6 | -29 | 22 | > 128 |  |
| CC1=C(OCCN2C(=O)C(=O)c3cc(Br)ccc32)C(C)SC1=O (stereo not given) | 17.4 | 31.7 |  |  |  |  |
| O=C1C(=O)N(CCCCBr)c2ccccc21 | > 20 | > 100 |  |  | 96.5 (≈ 27.2 µg/mL) | 28.8 (≈ 8.13 µg/mL) |
| O=C1C(=O)N(CCCCBr)c2ccc([N+](=O)[O-])cc21 | > 20 | > 100 |  |  | > 128 |  |
| Cc1ccc2c(c1)C(=O)C(=O)N2CCCCBr | > 20 | > 100 |  |  | 62.7 (≈ 18.6 µg/mL) | 53.2 (≈ 15.8 µg/mL) |
| O=C1C(=O)N(CCCCCBr)c2ccccc21 | > 20 | > 100 | -22.1 | 34.8 | 23.2 (≈ 6.87 µg/mL) | 44.4 (≈ 13.1 µg/mL) |
| CC1=C2OCCCCN3C(=O)C(O)(c4ccccc43)C2(C)SC1=O (stereo not given) | > 20 | > 100 | 17 | 18.1 | > 128 |  |
| CC1=C(OCCN2C(=O)C(=O)c3cc(C)ccc32)C(C)SC1=O (stereo not given) | > 20 | > 100 | -12 | 4 | > 128 |  |
| O=[N+]([O-])c1cn2c(n1)OC[C@@H](OCc1ccc(OC(F)(F)F)cc1)C2 [PRETOMANID] |  |  |  |  | 0.16 (≈ 0.0575 µg/mL) | 3.3 (≈ 1.19 µg/mL) |
| CC1=C(OCCCCCN2C(=O)C(=O)c3ccccc32)C(C)SC1=O (stereo not given) | 15.3 | 58 | 34.9 | 34 | > 128 |  |
| CC1=C(OCCN2C(=O)C(=O)c3cc(Cl)ccc32)C(C)SC1=O (stereo not given) | > 20 | 47.8 | -2.8 | 9.9 | 63.7 (≈ 22.4 µg/mL) | 117 (≈ 41.2 µg/mL) |
| CC1=C2OCCCCCN3C(=O)C(O)(c4ccccc43)C2(C)SC1=O (stereo not given) | > 20 | > 100 | 21.9 | 32.6 | > 128 |  |
| CC1=C2OCCCCN3C(=O)C(O)(c4cc(Br)ccc43)C2(C)SC1=O (stereo not given) | > 20 | > 100 | -16.2 | 5.1 | > 128 |  |
| O=C1C(=O)N(CCCCBr)c2ccc(Cl)cc21 | > 20 | > 100 |  |  | 30.5 (≈ 9.66 µg/mL) | 30.5 (≈ 9.66 µg/mL) |
| O=C1C(=O)N(CCCCCCBr)c2ccc(F)cc21 |  |  |  |  | 62.3 (≈ 20.4 µg/mL) | 31.5 (≈ 10.3 µg/mL) |
| CC1=C(O)SC(C)C1=O (stereo not given) [THIOLACTONE] | > 20 | > 100 | -24.5 | -32.8 | > 128 |  |
| CC1=C2OCCCCCN3C(=O)C(O)(c4cc(Br)ccc43)C2(C)SC1=O (stereo not given) | > 20 | 10.1 | -26 | -21.1 | > 128 |  |

| SMILES | IC50 (Plasmodium falciparum) [µM] | IC50 [1] [µM] | inhibition at 1 µg/mL [2] [%] | inhibition at 10 µg/mL [3] [%] | MIC [4] [µM] | MIC [5] [µM] |
| --- | --- | --- | --- | --- | --- | --- |
| O=C1C(=O)N(CCCCBr)c2ccc(F)cc21 | > 20 | > 100 |  |  | 123 (≈ 36.9 µg/mL) | 53.3 (≈ 16 µg/mL) |
| CC(C)C[C@H](NC(=O)[C@H]1O[C@@H]1C(=O)O)C(=O)NCCCCN=C(N)N [E-64] |  | 0.0473 |  |  |  |  |
| CC1=C2OCCCCCCN3C(=O)C(O)(c4cc(F)ccc43)C2(C)SC1=O (stereo not given) | 14 | > 100 | -35 | -28 | > 128 |  |
| CC1=C2OCCCCN3C(=O)C(O)(c4cc(C)ccc43)C2(C)SC1=O (stereo not given) | > 20 | > 100 | -0.6 | -0.4 | > 128 |  |
| CC1=C2OCCCCCCN3C(=O)C(O)(c4ccccc43)C2(C)SC1=O (stereo not given) | 11.5 | > 100 | 9.4 | 18.5 | > 128 |  |
| CC1=C2OCCCCCN3C(=O)C(O)(c4cc(I)ccc43)C2(C)SC1=O (stereo not given) | > 20 | > 100 | -39.7 | -40.7 | > 128 |  |
| O=C1C(=O)N(CCCCBr)c2ccc(Br)cc21 | > 20 | > 100 |  |  | 30.5 (≈ 11 µg/mL) | 37.7 (≈ 13.6 µg/mL) |
| CC1=C2OCCCCCCN3C(=O)C(O)(c4cc(Cl)ccc43)C2(C)SC1=O (stereo not given) | 7.41 | > 100 | -16 | -20 | > 128 |  |
| O=C1C(=O)N(CCBr)c2ccccc21 | > 20 | > 100 |  |  | > 128 |  |
| CC1=C2OCCCCN3C(=O)C(O)(c4cc(I)ccc43)C2(C)SC1=O (stereo not given) | > 20 | > 100 | 4.9 | 19.6 | > 128 |  |
| CC1=C(OCCCCCCN2C(=O)C(=O)c3ccccc32)C(C)SC1=O (stereo not given) | 12.3 | 32 | 27.7 | 36.4 | > 128 |  |
| O=C1C(=O)N(CCCCCCBr)c2ccc(Cl)cc21 |  |  |  |  | 29.7 (≈ 10.2 µg/mL) | 31 (≈ 10.7 µg/mL) |
| CO[C@H]1/C=C/O[C@@]2(C)Oc3c(C)c(O)c4c(O)c(c(/C=N/N5CCN(C)CC5)c(O)c4c3C2=O)NC(=O)/C(C)=C\C=C\[C@H](C)[C@H](O)[C@@H](C)[C@@H](O)[C@@H](C)[C@H](OC(C)=O)[C@@H]1C [RIFAMPIN] |  |  |  |  | 0.05 (≈ 0.0411 µg/mL) | 2.4 (≈ 1.98 µg/mL) |
| CC1=C2OCCCCN3C(=O)C(O)(c4cc(Cl)ccc43)C2(C)SC1=O (stereo not given) | > 20 | > 100 | 13.4 | 15.3 | > 128 |  |
| CC1=C2OCCCCCCN3C(=O)C(O)(c4cc(I)ccc43)C2(C)SC1=O (stereo not given) | 6.92 | 48.3 | -34 | -40 | > 128 |  |
| CC1=C2OCCCCN3C(=O)C(O)(c4cc(F)ccc43)C2(C)SC1=O (stereo not given) | > 20 | > 100 | 4.9 | 1.3 | > 128 |  |
| CC1=C(OCCCCN2C(=O)C(=O)c3ccccc32)C(C)SC1=O (stereo not given) | > 20 | > 100 | 33.4 | 42.6 | > 128 |  |
| C=C/C(C)=C/[C@@]1(C)SC(=O)C(C)=C1O [THIOLACTOMYCIN] | > 20 | > 100 | -3.8 | 58.6 | > 128 |  |
| CC1=C(OCCCN2C(=O)C(=O)c3ccccc32)C(C)SC1=O (stereo not given) | > 20 | > 100 | -18.5 | 14.9 | > 128 |  |
| O=C1C(=O)N(CCCBr)c2ccccc21 | > 20 | > 100 |  |  | > 128 |  |
| NNC(=O)c1ccncc1 [ISONIAZID] |  |  |  |  | 0.37 (≈ 0.0507 µg/mL) | > 128 |
| O=C1C(=O)N(CCCCBr)c2ccc(I)cc21 | > 20 | > 100 |  |  | 15.5 (≈ 6.32 µg/mL) | 57.1 (≈ 23.3 µg/mL) |
| CC1=C2OCCCCCN3C(=O)C(O)(c4cc(Cl)ccc43)C2(C)SC1=O (stereo not given) | > 20 | > 100 | 0 | -15.2 | > 128 |  |
